In one assay the target is T1, human CB2 receptor (Homo sapiens, UniProt P34972).
T1 construct: purchased BioSignal
Put plainly: hCB2 receptor binding (3H-CP55,940 displacement). The procedure: (§1) Human CB1 receptor from Receptor Biology (hCB1) or human CB2 receptor from BioSignal (hCB2) membranes are thawed at 37° C., passed 3 times through a 25-gauge blunt-end needle, diluted in the cannabinoid binding buffer (50 mM Tris, 2.5 mM EDTA, 5 mM MgCl2, and 0.5 mg/mL BSA fatty acid free, pH 7.4) and aliquots containing the appropriate amount of protein are distributed in 96-well plates. The IC50 of the compounds of the invention at hCB1 and hCB2 are evaluated from 10-point dose-response curves done with ^3H-CP55,940 at 20000 to 25000 dpm per well (0.17-0.21 nM) in a final volume of 300 μl. The total and non-specific binding are determined in the absence and presence of 0.2 μM of HU210 respectively. The plates are vortexed and incubated for 60 minutes at room temperature, filtered through Unifilters GF/B (presoaked in 0.1% polyethyleneimine) with the Tomtec or Packard harvester using 3 mL of wash buffer (50 mM Tris, 5 mM MgCl2, 0.5 mg BSA pH 7.0). The filters are dried for 1 hour at 55° C. The radioactivity (cpm) is counted in a TopCount (Packard) after adding 65 μl/well of MS-20 scintillation liquid.
(§2) Based on the above assays, the dissociation constant (Ki) for a particular compound of the invention towards a particular receptor is determined using the following equation: Ki=IC50/(1+[rad]/Kd), […]

Another assay addresses T2, human CB1 receptor (Homo sapiens, UniProt P21554).
T2 construct: purchased Receptor Biology
The assay can be described thus: hCB1 receptor binding (3H-CP55,940 displacement). Particulars: hCB1 membranes, 3H-CP55,940 radioligand; Ki=IC50/(1+[rad]/Kd); read-out: Ki towards human CB1 receptors. On the procedure: as §1, §2

T2 sequence (P21554 whole entry): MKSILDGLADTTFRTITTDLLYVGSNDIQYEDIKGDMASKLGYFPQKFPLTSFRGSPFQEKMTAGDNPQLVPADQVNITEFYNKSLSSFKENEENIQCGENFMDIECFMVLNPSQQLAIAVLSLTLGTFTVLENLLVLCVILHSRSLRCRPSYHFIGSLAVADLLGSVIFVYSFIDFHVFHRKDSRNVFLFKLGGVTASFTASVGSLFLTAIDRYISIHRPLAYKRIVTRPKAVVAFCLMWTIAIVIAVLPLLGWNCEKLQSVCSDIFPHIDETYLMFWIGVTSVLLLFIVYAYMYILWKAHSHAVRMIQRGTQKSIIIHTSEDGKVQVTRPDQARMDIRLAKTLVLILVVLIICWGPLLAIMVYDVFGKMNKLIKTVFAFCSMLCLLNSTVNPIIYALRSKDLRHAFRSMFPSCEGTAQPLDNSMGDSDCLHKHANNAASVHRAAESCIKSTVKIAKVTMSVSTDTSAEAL
T1 sequence (P34972 whole entry): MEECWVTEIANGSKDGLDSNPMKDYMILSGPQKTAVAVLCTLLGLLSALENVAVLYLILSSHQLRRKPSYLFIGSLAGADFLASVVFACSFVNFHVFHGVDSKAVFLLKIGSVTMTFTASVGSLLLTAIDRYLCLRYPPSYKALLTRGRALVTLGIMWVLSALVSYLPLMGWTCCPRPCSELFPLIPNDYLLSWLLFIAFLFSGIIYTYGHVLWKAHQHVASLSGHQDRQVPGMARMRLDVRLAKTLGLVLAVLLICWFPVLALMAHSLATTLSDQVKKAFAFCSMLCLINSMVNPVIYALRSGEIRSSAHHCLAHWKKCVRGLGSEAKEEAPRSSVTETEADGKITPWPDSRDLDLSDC

By Ki is commonly meant the equilibrium dissociation constant of an inhibitor or competing ligand from its target. For `CC(C)(C)c1nc2cc(C(=O)N(CC(F)(F)F)CC(F)(F)F)ccc2n1CC1CCCCC1` [compound 1, 2-tert-Butyl-1-(cyclohexylmethyl)-N,N-bis(2,2,2-trifluoroethyl)1H-benzimidazole-5-carboxamide], the values for the Ki at human CB2 receptor and at human CB1 receptor were roughly 33 nM and roughly 34 nM, respectively.

Source of the values: US7244850B2, “Benzimidazole derivatives, compositions containing them, preparation thereof and uses thereof” (AstraZeneca AB, priority 2003, dated 2007).
